Results: patent US20210062367A1, “METHOD FOR PRODUCING LIBRARY FOR USE IN PREDICTION OF ACTION OF SUBSTANCE OF INTEREST ON LIVING BODY, AND METHOD FOR […] OF SUBSTANCE OF INTEREST ON LIVING BODY BASED ON CHANGE IN ACTION PARAMETER OR THE LIKE OF ZEBRAFISH” (SUNTORY HOLDINGS LIMITED, priority 2017, published 2021)

Columns and labels:
[1] = tested on: nfi13-6; assay: Zebrafish oligo-DNA microarray gene expression with cluster analysis together with behavioral data (8beta vs library); type: in vivo, MieKomachi 002 Line 8 dpf; conditions: 8beta 10 μM; nfi13-6 clusters with H-, M-, L-DMT D, L1, L2
Procedure: (5) Subsequently, link the administration of the substance of known action and the change in expression levels of genes using microarray experiments.
(§1) The microarray experiments can be performed using Zebrafish oligo-DNA micro array Ver.3.0 manufactured by Agilent Technologies, Inc. according to protocol.
Based on array data obtained by this microarray experiment, the normalization of the data in the arrays is performed in the procedure described above using software in Gene Springs.
(3) Link the administration of 8beta and the change in expression levels of genes using microarray experiments.
The microarray experiments can be performed using zebrafish oligo-DNA micro array Ver.3.0 manufactured by Agilent Technologies, Inc. according to protocol.
(§2) Based on array data obtained by this microarray experiment, the normalization of the data in the arrays is performed in the procedure described above using software in Gene Springs and data among arrays are normalized by a method using the Z score.
Processing of statistically matching and analyzing the numerical data for Suvorexant and Imipramine recorded in the library and the numerical data with the administration of 8beta was conducted by the cluster analysis as follows. […]

[2] = tested on: zebrafish; assay: Zebrafish behavioral parameter measurement (Danio Vision/Ethovision) with cluster analysis against library of Suvorexant and Imipramine; type: in vivo, MieKomachi 002 Line 8 dpf; conditions: 8beta 10 μM; estimated from similarity to Suvorexant
Procedure: 0.3×Danieau's solution (19.3 mM NaCl, 0.23 mM KCl, 0.23 mM MgSO4, 0.2 mM Ca(NO3)2, 1.7 mM HEPES, pH 7.2) is used as a water bath, and a 0.1% DMSO-containing water bath is used.
Zebrafish is prepared by growing it under the following conditions to 8 dpf.
Zebrafish: MieKomachi 002 Line 8 dpf
For each substance of known action, the reagent in which the substance was dissolved in the water bath and adjusted at a concentration of 1 μM was prepared.
(1) Add 1 ml of the water bath to each well of a 48-well plate. Transfer one zebrafish (8 dpf) per well thereto and adjust the temperature to 28° C. and maintain the temperature for from 30 minutes to 1 hour. […]
(§3) The repetition of light and dark periods with cycled of a light period for 3 hours (period L1)—a dark period for 10 hours (period D)—a light period for 11 hours (period L2) is performed and the behavior of zebrafish is recorded for 24 hours. […]
(§4) For each class of mobility states, the indicators DMF, IZF, DTZ, and TA are measured. […]
(§5) (2) Store the measured behavioral parameters as raw data of the following forms. • Type of reagent (any of the reagents prepared in [Preparation of reagents for production of library] or control) • Mobility state (95 to 65 (high speed), 65 to 35 (moderate speed), or 35 to 05 (low speed)) • Repetition of light and dark periods (L1, D, or L2) • Indicator (DMF, IZF, DTZ, or TA) […]

[3] = tested on: zebrafish; assay: Zebrafish behavioral parameter measurement (Danio Vision/Ethovision) with cluster analysis against library of Diazepam and Haloperidol; type: in vivo, Zebrafish (Danio rerio), AB Line 6 dpf; conditions: EGCG 0.003 mg/mL; estimated from similarity to Diazepam
Procedure: 0.3×Danieau's solution (19.3 mM NaCl, 0.23 mM KCl, 0.23 mM MgSO4, 0.2 mM Ca(NO3)2, 1.7 mM HEPES, pH 7.2) is used as a water bath.
Zebrafish is prepared by growing it under the following conditions to 6 dpf.
For each substance of known action, the reagent in which the substance was dissolved in the water bath and adjusted at a concentration of 10 μM was prepared.
(1) Add 1 ml of the water bath to each well of a 48-well plate. Transfer one zebrafish (6 dpf) per well thereto and adjust the temperature to 28° C. and maintain the temperature for from 30 minutes to 1 hour.
(2) Remove the liquid in the 48-well plate with a pipette and then add 1 ml/well of any of the reagents. […]
as §3, §4, §5

[4] = tested on: per1b; assay: Zebrafish oligo-DNA microarray gene expression with cluster analysis together with behavioral data (EGCG vs library); type: in vivo, Zebrafish (Danio rerio), AB Line 6 dpf; conditions: EGCG 0.003 mg/mL; per1b clusters with L-DMT D, L-DMT L1, L-DMT L2
Procedure: This can be done by citing array data of Diazepam (GSE23157) and Haloperidol (GSE89780) from a public DB (Geo Datasets).
Based on these array data, the normalization of the data in the arrays is performed in the procedure described above using software in Gene Springs and data among arrays are normalized by a method using the Z score.
(3) Link the administration of EGCG and the change in expression levels of genes using microarray experiments.
as §1, §2
Processing of statistically matching and analyzing the numerical data for Diazepam and Haloperidol recorded in the library and the numerical data with the administration of EGCG was conducted by the cluster analysis as follows.
In the result of cluster analysis including data of change in expression levels of genes, the action and mechanism of EGCG can be estimated based on the Gene Ontrogy (GO) information of the gene expression data by paying attention on data having high correlation between EGCG and Diazepam (data clustered in close relation). […]

[5] = tested on: zebrafish; conditions: modafinil given to zebrafish in bath; compared with ethanol; cited from earlier work

C=C1C(=O)OC2C=C(C)CCC=C(C)CC(OC(=O)/C(C)=C/CO)C12 (stereo not drawn) [8beta, 8beta-(4′-hydroxytigloyloxy)costunolide]
gene expression data (nfi13-6), cluster analysis of change in expression levels [1]: change with correlation between 8beta and Suvorexant | action estimated from closely related drug in cluster analysis [2]: sleep action

O=C(O[C@@H]1Cc2c(O)cc(O)cc2O[C@@H]1c1cc(O)c(O)c(O)c1)c1cc(O)c(O)c(O)c1 [EGCG, epigallocatechin gallate]
action estimated from closely related drug in cluster analysis [3]: sedative action | gene expression data (per1b), cluster analysis of change in expression levels [4]: change with correlation between EGCG and Diazepam

NC(=O)C[S+]([O-])C(c1ccccc1)c1ccccc1 (centres unmarked) [modafinil]
action suggested by behavioral analysis of zebrafish [5]: antianxiety action
